Assay results from patent US12310963B2, “Pyrazole derivatives and use thereof” (Tarapeutics Science Inc., priority 2019, dated 2025).

Key:
[1] = test system: BaF3-tel-PDGFRβ (stably expressing PDGFRβ kinase); experiment: Growth of BaF3-tel-PDGFRβ cells, Cell Titer-Glo, 72 h; type: cell-based, mouse
Text: (§1) In this example, mouse primary B cell BaF3 (purchased from ATCC, U.S.A.) was used. In addition, in this example, mouse BaF3-tel-PDGFRα (stably expressing PDGFRα kinase), mouse BaF3-tel-PDGFRβ (stably expressing PDGFRβ kinase), BaF3-P210 (stably expressing ABL kinase), BaF3-P210-T315I (stably expressing ABL-T315I kinase), BaF3-FL-BRAF-V600E (stably expressing BRAF-V600E kinase), BaF3-TEL-cKIT (stably expressing cKIT kinase), BaF3-TEL-VEGFR2 (stably expressing VEGFR2 kinase), BaF3-TEL-FGFR2 (stably expressing FGFR2 kinase) were also used. The above-mentioned cell trains were all constructed in our laboratory by the method as follows. The sequences of human BCR-ABL (P210 or P210/T315I mutated), full-length BRAF-V600E, cKIT, VEGFR2, FGFR2, PDGFRα, PDGFRβ kinase region were amplified respectively via PCR, and inserted respectively into a MSCV-Puro vector (purchased from Clontech) having a N-terminal TEL fragment and/or NPM fragment and/or TPR fragment, and stably transferred into mouse BaF3 cells by the retroviral method, and the growth factor IL-3 was removed. Eventually, cell lines which are transferred into proteins depending on PDGFRα, PDGFRβ were obtained.
(§2) In this example, solutions of the test compound at different concentrations (0.000508 μM, 0.00152 μM, 0.00457 μM, 0.0137 μM, 0.0411 μM, 0.123 μM, 0.370 μM, 1.11 μM, 3.33 μM, 10 μM) were added to the above cells. The cells were incubated for 72 hours.

[2] = test system: BaF3-tel-PDGFRα (stably expressing PDGFRα kinase); experiment: Growth of BaF3-tel-PDGFRα cells, Cell Titer-Glo, 72 h; type: cell-based, mouse
Text: as §1, §2

BaF3 = experiment: Growth of parental BaF3 cells, Cell Titer-Glo, 72 h; type: cell-based; conditions: Mus musculus
Text: as §1, §2

SMILES	GI50 [1] [nM]	GI50 [2] [nM]	GI50 (BaF3) [nM]
Cc1ccc(NC(=O)c2cccc(C(F)(F)F)n2)cc1-n1cc(-c2cncc(N3CC4(COC4)C3)c2)nn1 [Compound 38, N-(3-(4-(5-(2-oxa-6-aza-spiro[3.3]hept-6-yl]pyridin-3-yl)-1H-1,2,3-triazol-1-yl)-4-methylphenyl)-6-(trifluoromethyl)picolinamide]	< 10	< 10	> 10000
CN1CCN(c2cncc(-c3cn(-c4cc(NC(=O)c5ccnc(C(F)(F)F)c5)ccc4F)nn3)c2)CC1 [Compound 25, N-(4-fluoro-3-(4-(5-(4-methylpiperazin-1-yl)pyridin-3-yl)-1H-1,2,3-triazol-1-yl)phenyl)-2-(trifluoromethyl) isonicotinamide]	< 10	< 10	5550
Cc1ccc(NC(=O)c2cc(C(F)(F)F)ccn2)cc1-n1cc(-c2cncc(N3CC4(COC4)C3)c2)nn1 [Compound 41, N-(3-(4-(5-(2-oxa-6-aza-spiro[3.3]hept-6-yl]pyridin-3-yl)-1H-1,2,3-triazol-1-yl)-4-methylphenyl)-4-(trifluoromethyl)picolinamide]	< 10	< 10	3660
CN1CCN(c2cncc(-c3cn(-c4cc(NC(=O)c5cc(C(F)(F)F)ccn5)ccc4F)nn3)c2)CC1 [Compound 27, N-(4-fluoro-3-(4-(5-(4-methylpiperazin-1-yl)pyridin-3-yl)-1H-1,2,3-triazol-1-yl)phenyl)-4-(trifluoromethyl)picolinamide]	< 10	< 10	4730
Cc1ccc(NC(=O)c2cncc(C(F)(F)F)c2)cc1-n1cc(-c2cncc(N3CC4(COC4)C3)c2)nn1 [Compound 40, N-(3-(4-(5-(2-oxa-6-aza-spiro[3.3]hept-6-yl]pyridin-3-yl)-1H-1,2,3-triazol-1-yl)-4-methylphenyl)-5-(trifluoromethyl)nicotinamide]	< 10	< 10	9990
Cc1ccc(NC(=O)c2cccc(C(F)(F)F)n2)cc1-n1cc(-c2cnccc2OC2COC2)cn1 [Compound 6, N-(4-methyl-3-(4-(4-(oxetan-3-yloxy)pyridin-3-yl)-1H-pyrazol-1-yl)phenyl)-6-(trifluoromethyl)picolinamide]	1	< 0.3	> 10000
CN1CCN(c2cncc(-c3cn(-c4cc(NC(=O)c5cncc(C(F)(F)F)c5)ccc4F)nn3)c2)CC1 [Compound 26, N-(4-fluoro-3-(4-(5-(4-methylpiperazin-1-yl)pyridin-3-yl)-1H-1,2,3-triazol-1-yl)phenyl)-5-(trifluoromethyl)nicotinamide]	< 10	< 10	4740
Cc1ccc(NC(=O)c2cccc(C(F)(F)F)n2)cc1-n1cc(-c2cnccc2OCCN2CCOCC2)cn1 [Compound 4, N-(4-methyl-3-(4-(4-(2-morpholinoethoxy)pyridin-3-yl)-1H-pyrazol-1-yl)phenyl)-6-(trifluoromethyl)picolinamide]	3.2	< 0.3	~10000
Cc1ccc(NC(=O)c2cc(C(F)(F)F)ccn2)cc1-n1cc(-c2cncc(N3CCN(C)CC3)c2)nn1 [Compound 21, N-(4-methyl-3-(4-(5-(4-methylpiperazin-1-yl)pyridin-3-yl)-1H-1,2,3-triazol-1-yl)phenyl)-4-(trifluoromethyl)picolinamide]	< 10	< 10	2840
Cc1ccc(NC(=O)c2ccnc(C(F)(F)F)c2)cc1-n1cc(-c2cnccc2OCCN2CCOCC2)cn1 [Compound 5, N-(4-methyl-3-(4-(4-(2-morpholinoethoxy)pyridin-3-yl)-1H-pyrazol-1-yl)phenyl)-2-(trifluoromethyl)isonicotinamide]	< 0.3	< 0.3	~10000
Cc1ccc(NC(=O)c2cccc(C(F)(F)F)n2)cc1-n1cc(-c2cncc(N3CC4(COC4)C3)c2)cn1 [Compound 32, N-(3-(4-(5-(2-oxa-6-aza-spiro[3.3]hept-6-yl]pyridin-3-yl)-1H-pyrazol-1-yl)-4-methylphenyl)-6-(trifluoromethyl)picolinamide]	< 10	< 10	9200
Cc1ccc(NC(=O)c2cccc(C(F)(F)F)n2)cc1-n1cc(-c2cnccc2OCC2CCOCC2)cn1 [Compound 13, N-(4-methyl-3-(4-(4-((tetrahydropyran-4-yl)methoxy)pyridin-3-yl)-1H-pyrazol-1-yl)phenyl)-6-(trifluoromethyl)picolinamide]	5.5	1.6	> 10000
Cc1ccc(NC(=O)c2ccnc(C(F)(F)F)c2)cc1-n1cc(-c2cncc(N3CC4(COC4)C3)c2)cn1 [Compound 33, N-(3-(4-(5-(2-oxa-6-aza-spiro[3.3]hept-6-yl]pyridin-3-yl)-1H-pyrazol-1-yl)-4-methylphenyl)-2-(trifluoromethyl)isonicotinamide]	< 10	< 10	6490
Cc1ccc(NC(=O)c2ccnc(C(F)(F)F)c2)cc1-n1cc(-c2cncc(OC3COC3)c2)cn1 [Compound 7, N-(4-methyl-3-(4-(5-(oxetan-3-yloxy)pyridin-3-yl)-1H-pyrazol-1-yl)phenyl)-2-(trifluoromethyl)isonicotinamide]	1	< 0.3	> 10000
Cc1ccc(NC(=O)c2ccnc(C(F)(F)F)c2)cc1-n1cc(-c2cncc(N3CCN(C)CC3)c2)nn1 [Compound 19, N-(4-methyl-3-(4-(5-(4-methylpiperazin-1-yl)pyridin-3-yl)-1H-1,2,3-triazol-1-yl)phenyl)-2-(trifluoromethyl)isonicotinamide]	< 10	< 10	> 10000
Cc1ccc(NC(=O)c2ccnc(C(F)(F)F)c2)cc1-n1cc(-c2cncc(N3CC4(COC4)C3)c2)nn1 [Compound 39, N-(3-(4-(5-(2-oxa-6-aza-spiro[3.3]hept-6-yl]pyridin-3-yl)-1H-1,2,3-triazol-1-yl)-4-methylphenyl)-2-(trifluoromethyl)isonicotinamide]	< 10	< 10	> 10000

Further lines, with some results ahead:

GI50 [1] [nM]	GI50 [2] [nM]	SMILES	GI50 (BaF3) [nM]
40	2.8	Cc1ccc(NC(=O)c2ccnc(C(F)(F)F)c2)cc1-n1cc(-c2cncc(N3CCN(C)CC3)c2)cn1 [Compound 2, N-(4-methyl-3-(4-(5-(4-methylpiperazin-1-yl)pyridin-3-yl)-1H-pyrazol-1-yl)phenyl)-2-(trifluoromethyl)isonicotinamide]	9290
< 10	< 10	CN1CCN(c2cncc(-c3cn(-c4cc(NC(=O)c5cccc(Cl)n5)ccc4F)nn3)c2)CC1 [Compound 28, 6-chloro-N-(4-fluoro-3-(4-(5-(4-methylpiperazin-1-yl)pyridin-3-yl)-1H-1,2,3-triazol-1-yl)phenyl)picolinamide]	3900
< 1.5	< 1.5	Cc1ccc(NC(=O)c2cccc(F)n2)cc1-n1cc(-c2cncc(N3CCN(C)CC3)c2)cn1 [Compound 14, 6-fluoro-N-(4-methyl-3-(4-(5-(4-methylpiperazin-1-yl)pyridin-3-yl)-1H-pyrazol-1-yl)phenyl)picolinamide]	8400
< 10	< 10	CN1CCN(c2cncc(-c3cn(-c4cc(NC(=O)c5cccc(F)n5)ccc4F)nn3)c2)CC1 [Compound 29, 6-fluoro-N-(4-fluoro-3-(4-(5-(4-methylpiperazin-1-yl)pyridin-3-yl)-1H-1,2,3-triazol-1-yl)phenyl)picolinamide]	2840
< 1.5	< 1.5	Cc1ccc(NC(=O)c2cncc(C(F)(F)F)c2)cc1-n1cc(-c2cncc(N3CCN(C)CC3)c2)cn1 [Compound 16, N-(4-methyl-3-(4-(5-(4-methylpiperazin-1-yl)pyridin-3-yl)-1H-pyrazol-1-yl)phenyl)-5-(trifluoromethyl)nicotinamide]	> 10000
< 10	< 10	Cc1ccc(NC(=O)c2cccc(Cl)n2)cc1-n1cc(-c2cncc(N3CC4(COC4)C3)c2)cn1 [Compound 36, N-(3-(4-(5-(2-oxa-6-aza-spiro[3.3]hept-6-yl]pyridin-3-yl)-1H-pyrazol-1-yl)-4-methylphenyl)-6-chloropicolinamide]	9760
< 10	< 10	Cc1ccc(NC(=O)c2cccc(F)n2)cc1-n1cc(-c2cncc(N3CC4(COC4)C3)c2)cn1 [Compound 37, N-(3-(4-(5-(2-oxa-6-aza-spiro[3.3]hept-6-yl]pyridin-3-yl)-1H-pyrazol-1-yl)-4-methylphenyl)-6-fluoropicolinamide]	9850
< 1.5	< 1.5	Cc1ccc(NC(=O)c2cc(C(F)(F)F)ccn2)cc1-n1cc(-c2cncc(N3CCN(C)CC3)c2)cn1 [Compound 15, N-(4-methyl-3-(4-(5-(4-methylpiperazin-1-yl)pyridin-3-yl)-1H-pyrazol-1-yl)phenyl)-4-(trifluoromethyl)picolinamide]	3900
